# Data from ChEMBL document CHEMBL4152293, “Synthesis and biological evaluation of podophyllotoxin derivatives as selective antitumor agents” (Eur J Med Chem, 2018).
# The source made the active and inactive calls. The rule behind the calls is not given here.
# Columns and labels:
# L02 [1] = experiment: Cell cycle arrest in human L02 cells assessed as accumulation at G0/G1 phase at 100 nM after 72 hrs by propidium iodide staining-based flow cytometric method (reference value: 57.34%); format: ADME; conditions: l02, 72 h, 0.1 µM
# A549 [2] = experiment: Induction of morphological changes in nucleus of human A549 cells at 10 to 30 nM after 72 hrs by DAPI staining-based fluorescence microscopic method; format: functional, cell-based
# A549 [3] = experiment: Cell cycle arrest in human A549 cells assessed as accumulation at G0/G1 phase at 5 nM after 72 hrs by propidium iodide staining-based flow cytometric method (reference value: 61.29%); format: functional
# L02 [4] = experiment: Induction of morphological changes in human L02 cells at 10 to 30 nM after 72 hrs by DAPI staining-based fluorescence microscopic method; format: cell-based; conditions: l02, 72 h, 0.03 µM
# L02 [5] = experiment: Cell cycle arrest in human L02 cells assessed as accumulation at S phase at 100 nM after 72 hrs by propidium iodide staining-based flow cytometric method (reference value: 25.78%); format: ADME; conditions: l02, 72 h, 0.1 µM
# [6] = Induction of apoptosis in human L02 cells assessed as viable cells at 200 nM after 72 hrs by annexin V-FITC/propidium iodide staining-based flow cytometric method (reference value: 96.3%); format: cell-based; conditions: read-out: Activity
# [7] = Induction of apoptosis in human L02 cells assessed as viable cells at 100 nM after 72 hrs by annexin V-FITC/propidium iodide staining-based flow cytometric method (reference value: 96.3%); format: cell-based; conditions: read-out: Activity
# L02 [8] = experiment: Cell cycle arrest in human L02 cells assessed as accumulation at G0/G1 phase at 5 nM after 72 hrs by propidium iodide staining-based flow cytometric method (reference value: 57.34%); format: ADME; conditions: l02, 72 h, 0.005 µM
# A549 [9] = experiment: Cell cycle arrest in human A549 cells assessed as accumulation at G2/M phase at 10 nM after 72 hrs by propidium iodide staining-based flow cytometric method (reference value: 14.23%); format: functional
# A549 [10] = experiment: Induction of apoptosis in human A549 cells assessed as late apoptotic cells at 10 nM after 72 hrs by annexin V-FITC/propidium iodide staining-based flow cytometric method (reference value: 4.1%); format: functional
# A549 [11] = experiment: Induction of apoptosis in human A549 cells assessed as early apoptotic cells at 10 nM after 72 hrs by annexin V-FITC/propidium iodide staining-based flow cytometric method (reference value: 3%); format: functional
# L02 [12] = experiment: Cell cycle arrest in human L02 cells assessed as accumulation at G2/M phase at 10 nM after 72 hrs by propidium iodide staining-based flow cytometric method (reference value: 16.88%); format: ADME; conditions: l02, 72 h, 0.01 µM
# L02 [13] = experiment: Induction of apoptosis in human L02 cells assessed as necrotic cells at 10 nM after 72 hrs by annexin V-FITC/propidium iodide staining-based flow cytometric method (reference value: 0%); format: cell-based; conditions: l02, 72 h, 0.01 µM
# A549 [14] = experiment: Cell cycle arrest in human A549 cells assessed as accumulation at S phase at 10 nM after 72 hrs by propidium iodide staining-based flow cytometric method (reference value: 24.48%); format: functional
# A549 [15] = experiment: Cell cycle arrest in human A549 cells assessed as accumulation at S phase at 100 nM after 72 hrs by propidium iodide staining-based flow cytometric method (reference value: 24.48%); format: functional
# L02 [16] = experiment: Induction of apoptosis in human L02 cells assessed as late apoptotic cells at 100 nM after 72 hrs by annexin V-FITC/propidium iodide staining-based flow cytometric method (reference value: 1.6%); format: cell-based; conditions: l02, 72 h, 0.1 µM
# L02 [17] = experiment: Cell cycle arrest in human L02 cells assessed as accumulation at S phase at 5 nM after 72 hrs by propidium iodide staining-based flow cytometric method (reference value: 25.78%); format: ADME; conditions: l02, 72 h, 0.005 µM
# A549 [18] = experiment: Induction of apoptosis in human A549 cells assessed as late apoptotic cells at 100 nM after 72 hrs by annexin V-FITC/propidium iodide staining-based flow cytometric method (reference value: 4.1%); format: functional
# A549 [19] = experiment: Induction of apoptosis in human A549 cells assessed as necrotic cells at 100 nM after 72 hrs by annexin V-FITC/propidium iodide staining-based flow cytometric method (reference value: 0.1%); format: functional
# A549 [20] = experiment: Induction of apoptosis in human A549 cells assessed as viable cells at 200 nM after 72 hrs by annexin V-FITC/propidium iodide staining-based flow cytometric method (reference value: 92.8%); format: functional; conditions: A549, 72 h, read-out: Activity
# [21] = Induction of apoptosis in human L02 cells assessed as viable cells at 10 nM after 72 hrs by annexin V-FITC/propidium iodide staining-based flow cytometric method (reference value: 96.3%); format: cell-based; conditions: read-out: Activity
# L02 [22] = experiment: Cell cycle arrest in human L02 cells assessed as accumulation at G2/M phase at 100 nM after 72 hrs by propidium iodide staining-based flow cytometric method (reference value: 16.88%); format: ADME; conditions: l02, 72 h, 0.1 µM
# A549 [23] = experiment: Induction of apoptosis in human A549 cells assessed as necrotic cells at 10 nM after 72 hrs by annexin V-FITC/propidium iodide staining-based flow cytometric method (reference value: 0.1%); format: functional
# MCF7 = experiment: Cytotoxicity against human MCF7 cells assessed as growth inhibition after 72 hrs by MTT assay; format: functional, cell-based; conditions: MCF7, 72 h
# A549 [24] = experiment: Induction of apoptosis in human A549 cells assessed as early apoptotic cells at 100 nM after 72 hrs by annexin V-FITC/propidium iodide staining-based flow cytometric method (reference value: 3%); format: functional
# L02 [25] = experiment: Induction of apoptosis in human L02 cells assessed as early apoptotic cells at 100 nM after 72 hrs by annexin V-FITC/propidium iodide staining-based flow cytometric method (reference value: 2%); format: cell-based; conditions: l02, 72 h, 0.1 µM
# A549 [26] = experiment: Induction of apoptosis in human A549 cells assessed as viable cells at 10 nM after 72 hrs by annexin V-FITC/propidium iodide staining-based flow cytometric method (reference value: 92.8%); format: functional; conditions: A549, 72 h, read-out: Activity
# A549 [27] = experiment: Induction of apoptosis in human A549 cells after 72 hrs by annexin V-FITC/propidium iodide staining-based flow cytometric method; format: functional, cell-based
# L02 [28] = experiment: Induction of apoptosis in human L02 cells assessed as necrotic cells at 100 nM after 72 hrs by annexin V-FITC/propidium iodide staining-based flow cytometric method (reference value: 0%); format: cell-based; conditions: l02, 72 h, 0.1 µM
# A549 [29] = experiment: Cell cycle arrest in human A549 cells assessed as accumulation at G0/G1 phase at 10 nM after 72 hrs by propidium iodide staining-based flow cytometric method (reference value: 61.29%); format: functional
# L02 [30] = experiment: Cytotoxicity against human L02 cells assessed as growth inhibition after 72 hrs by MTT assay; format: cell-based; conditions: L02, 72 h
# [31] = Selectivity index, ratio of IC50 for human L02 cells to IC50 for human A549 cells; format: toxicity; conditions: L02 cells versus A549 cells, read-out: Ratio IC50
# A549 [32] = experiment: Induction of apoptosis in human A549 cells assessed as viable cells at 100 nM after 72 hrs by annexin V-FITC/propidium iodide staining-based flow cytometric method (reference value: 92.8%); format: functional; conditions: A549, 72 h, read-out: Activity
# L02 [33] = experiment: Induction of apoptosis in human L02 cells assessed as early apoptotic cells at 10 nM after 72 hrs by annexin V-FITC/propidium iodide staining-based flow cytometric method (reference value: 2%); format: cell-based; conditions: l02, 72 h, 0.01 µM
# L02 [34] = experiment: Cell cycle arrest in human L02 cells assessed as accumulation at G2/M phase at 5 nM after 72 hrs by propidium iodide staining-based flow cytometric method (reference value: 16.88%); format: ADME; conditions: l02, 72 h, 0.005 µM
compound,measurement,setting,value
COc1cc([C@@H]2c3cc4c(cc3[C@H](OC(=O)CN(C)C(=O)OC(C)(C)C)[C@H]3COC(=O)[C@H]23)OCO4)cc(OC)c1OC,Activity,L02 [1],67.29%
same,Activity,A549 [2],Active
same,Activity,A549 [3],60.2%
same,Activity,L02 [4],Non-Toxic
same,Activity,L02 [5],18.93%
same,"viability at 72 h, 0.2 µM",[6],31.8%
same,"viability at 72 h, 0.1 µM",[7],87.3%
same,Activity,L02 [8],62.19%
same,Activity,A549 [9],13.54%
same,Activity,A549 [10],8.1%
same,Activity,A549 [11],4.1%
same,Activity,L02 [12],13.11%
same,Activity,L02 [13],0%
same,Activity,A549 [14],27.26%
same,Activity,A549 [15],47.13%
same,Activity,L02 [16],2.1%
same,Activity,L02 [17],24.04%
same,Activity,A549 [18],3%
same,Activity,A549 [19],0%
same,viability at 0.2 µM,A549 [20],5.1%
same,"viability at 72 h, 0.01 µM",[21],94.1%
same,Activity,L02 [22],13.78%
same,Activity,A549 [23],0%
same,IC50,MCF7,133 nM
same,Activity,A549 [24],84.6%
same,Activity,L02 [25],10.6%
same,viability at 0.01 µM,A549 [26],87.8%
same,Activity,A549 [27],Dose-dependent effect
same,Activity,L02 [28],0%
same,Activity,A549 [29],59.2%
same,IC50,L02 [30],160 nM
same,selectivity ratio,[31],16.9
same,viability at 0.1 µM,A549 [32],12.4%
same,Activity,L02 [33],4.3%
same,Activity,L02 [34],13.77%
